The source of these data is patent US7901879B2, “Lactoferrin in the treatment of malignant neoplasms and other hyperproliferative diseases” (Agennix Incorporated, priority 2002, dated 2011).

Molecules are shown by their SMILES.

In the experiment the test system is murine squamous carcinoma cell line (SCCVII). The experiment in a line: SCCVII floor-of-mouth tumor growth, oral rhLF and/or cisplatin (Example 6). It counts as in vivo, immunocompetent C3H mice. Here is the method: A murine squamous carcinoma cell line (SCCVII) was injected into the floor of the mouth through the neck skin of immunocompetent C3H mice (Day 0). […] Tumors were measured in three dimensions with calipers.
Tumor-bearing mice were randomized into a control group and seven groups receiving rhLF and/or cisplatin. RhLF (4 mg; 200 mg/Kg) was administered once daily by oral gavage for 8 days on days 5 through 12. Cisplatin was administered as a single dose of 5 mg/Kg given intraperitoneally either at the start of rhLF (day 5), in the middle (day 8) or at the end (day 12) of rhLF therapy. Animals were sacrificed on day 12 post-implantation and the residual tumor masses were measured and processed for later additional analyses.

With `N.N.[Cl][Pt][Cl]` [CP, Cisplatin], the “TGI (%) Relative to Placebo” value was found to be 68% (cisplatin 5 mg/kg i.p. on day 5, with rhLF 200 mg/kg oral days 5-12 where combined); 6% (cisplatin 5 mg/kg i.p. on day 8, with rhLF 200 mg/kg oral days 5-12 where combined); 42% (cisplatin 5 mg/kg i.p. on day 12, with rhLF 200 mg/kg oral days 5-12 where combined); 38% (pooled cisplatin day 5, 8 and 12 groups).
